Results reported in a compilation of properties of binary mixtures (doi:10.1016/j.molliq.2020.112754).

Test: xn = mol fraction of the nth substance listed
Conditions: 100 kPa

Cc1ccccc1 + CCCCCC[N+]1(C)CCCC1.O=S(=O)([N-]S(=O)(=O)C(F)(F)F)C(F)(F)F
x1 = 1
Conditions | viscosity [mPa·s]
293.15 K | 0.598
298.15 K | 0.569
303.15 K | 0.539
313.15 K | 0.495

Cc1ccccc1 + CCCC[N+]1(C)CCCC1.O=S(=O)([N-]S(=O)(=O)C(F)(F)F)C(F)(F)F
x1 = 1
Conditions | viscosity [mPa·s]
293.15 K | 0.598
298.15 K | 0.569
303.15 K | 0.539
313.15 K | 0.485

CCCC[N+]1(C)CCCC1.O=S(=O)([N-]S(=O)(=O)C(F)(F)F)C(F)(F)F + Cc1ccccc1
viscosity [mPa·s]
Conditions | x2 = 0 | x2 = 0.1093 | x2 = 0.1978 | x2 = 0.3041 | x2 = 0.3965 | x2 = 0.5054 | x2 = 0.6027 | x2 = 0.7066
293.15 K | 90.2 | 66.9 | 51.5 | 36.61 | 26 | 17.04 | 11.02 | 6.26
298.15 K | – | 52.3 | 41.5 | 29.96 | 21.88 | – | – | 5.73
303.15 K | 56.2 | 42.87 | 34.07 | – | – | 13.06 | 9.11 | 5.28
308.15 K | 45.8 | 34.88 | 28.4 | 21.58 | 16.48 | 11.86 | 8.4 | 5.05
313.15 K | – | 29.43 | 24.08 | – | – | 10.63 | 7.58 | –

Cc1ccccc1 + CCCC[n+]1ccccc1.O=S(=O)([N-]S(=O)(=O)C(F)(F)F)C(F)(F)F
x1 = 1
Conditions | viscosity [mPa·s]
293.15 K | 0.598
298.15 K | 0.569
303.15 K | 0.539
308.15 K | 0.509
313.15 K | 0.485

CCCC[n+]1ccccc1.O=S(=O)([N-]S(=O)(=O)C(F)(F)F)C(F)(F)F + Cc1ccccc1
viscosity [mPa·s]
Conditions | x2 = 0 | x2 = 0.0994 | x2 = 0.2022 | x2 = 0.2939 | x2 = 0.3972 | x2 = 0.5025 | x2 = 0.6068 | x2 = 0.7033
293.15 K | 68.9 | 54.2 | 41.67 | 31.52 | – | 15.1 | – | 6.11
298.15 K | – | 42.92 | 33.54 | 25.9 | 19 | – | 9.09 | 5.53
303.15 K | 41.94 | 34.61 | 27.6 | – | 16.23 | 11.99 | 8.21 | 5.19
308.15 K | 33.75 | 28.44 | 22.89 | 18.36 | – | – | 7.48 | 4.96
313.15 K | 27.63 | 23.67 | 19.28 | 15.83 | – | 9.23 | – | 4.293

CCCCCC[N+]1(C)CCCC1.O=S(=O)([N-]S(=O)(=O)C(F)(F)F)C(F)(F)F + Cc1ccccc1
viscosity [mPa·s]
Conditions | x2 = 0 | x2 = 0.0942 | x2 = 0.1943 | x2 = 0.29 | x2 = 0.3938 | x2 = 0.493 | x2 = 0.5961 | x2 = 0.6986 | x2 = 0.7993
293.15 K | 136.2 | 103.1 | 77.3 | 55.6 | – | 24.39 | 14.74 | 8.36 | –
298.15 K | 102.8 | 79.3 | 61.2 | 44.91 | 30.92 | 20.68 | 12.89 | 7.61 | 3.838
303.15 K | 79.6 | 62.3 | 48 | 36.7 | 25.95 | 17.85 | – | 6.93 | 3.477
308.15 K | 63.1 | 50.2 | 39.6 | – | 22.17 | 15.66 | 10.64 | 6.49 | –
313.15 K | – | 40.96 | 32.72 | 25.67 | 19.3 | 14.05 | 9.54 | 5.88 | 2.944
